One experiment has as its target T1, human CD38 (Homo sapiens, UniProt P28907).
T1 sequence (P28907 1-300): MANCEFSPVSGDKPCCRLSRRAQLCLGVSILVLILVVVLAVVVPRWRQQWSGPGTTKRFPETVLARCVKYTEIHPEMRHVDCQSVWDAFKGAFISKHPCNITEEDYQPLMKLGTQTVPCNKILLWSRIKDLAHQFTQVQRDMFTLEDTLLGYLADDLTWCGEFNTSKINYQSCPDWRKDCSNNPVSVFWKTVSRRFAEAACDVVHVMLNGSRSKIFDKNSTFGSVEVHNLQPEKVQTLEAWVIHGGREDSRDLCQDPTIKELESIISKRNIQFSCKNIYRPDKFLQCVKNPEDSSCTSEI
Nature of the experiment: human recombinant CD38 enzyme assay (hydrolysis of NAD+). As to conditions: human recombinant CD38, 0.4 nM enzyme, 62.5 μM NAD+; read-out: hCD38 BioChem IC50. Format: biochemical. The gist of the method:
(§1)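 Recombinant human or mouse CD38 hydrolyzing NAD+ in a cell-free buffered system. Dose-responses were run for 60 min at ambient temperature. Remaining NAD+ was converted to NADH by alcohol dehydrogenase, which drove diaphorase reduction of resazurin to resorufin, read at 540/590 nm.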

The target of experiment [1] is T2, endogenous CD38 in HL60 cells (Homo sapiens, UniProt P28907).
T2 construct: endogenous in cells; host or cells: HL60 (leukemic cells, treated with all-trans retinoic acid)
T2 sequence (P28907 1-300): T1 sequence (P28907 1-300)
Nature of the experiment: cellular CD38 assay in HL60 cells (cellular NAD levels). The class given is cell-based. As to conditions: all-trans retinoic acid, 24 hours, read-out: hCD38 HL60 ATRA NAD Cell Diaphorase IC50. The procedure, abridged: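 HL60 cells (20000/well) were treated with compound in DMSO for 24 h. Cellular NAD was then measured by an enzymatic cycling mix (alcohol dehydrogenase, diaphorase, 40 uM resazurin, 10 uM FMN, 3% ethanol, Triton X-100, pH 8.4).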

The target of a further experiment is T3, mouse CD38 (Mus musculus, UniProt P56528).
T3 sequence (P56528 1-304): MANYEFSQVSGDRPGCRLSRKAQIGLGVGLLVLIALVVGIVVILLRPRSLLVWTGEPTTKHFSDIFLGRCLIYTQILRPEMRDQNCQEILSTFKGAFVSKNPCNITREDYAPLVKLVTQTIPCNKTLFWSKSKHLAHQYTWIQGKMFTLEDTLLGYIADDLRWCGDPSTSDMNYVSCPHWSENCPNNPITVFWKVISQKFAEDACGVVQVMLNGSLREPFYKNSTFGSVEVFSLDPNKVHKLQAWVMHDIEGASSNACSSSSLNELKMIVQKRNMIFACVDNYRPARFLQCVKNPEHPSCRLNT
The experiment can be described thus: mouse recombinant CD38 enzyme assay (hydrolysis of NAD+). As to conditions: read-out: mCD38 BioChem IC50. Format: biochemical. The gist of the method: as §1

As for `Cc1cc(C(=O)Nc2ccc(C(F)(F)F)nc2)nc(-n2ccnc2)n1` [Compound 117, 2-(1H-imidazol-1-yl)-6-methyl-N-(6-(trifluoromethyl)pyridin-3-yl)pyrimidine-4-carboxamide], the IC50 at human CD38 amounted to 4 nM; in experiment [1] it was 350 nM; at mouse CD38 it was 1 nM.
In the case of `COc1cc(C(=O)Nc2ccc(C(F)(F)F)nc2)nc(-n2ccnc2)c1` [Compound 221, 6-(1H-imidazol-1-yl)-4-methoxy-N-(6-(trifluoromethyl)pyridin-3-yl)picolinamide], the IC50 on human CD38 stood at 3.6 nM; in experiment [1] it was 1130 nM; on mouse CD38 it was 2.2 nM.
Regarding `Cn1cncc1-c1cnc(N)c(C(=O)Nc2ccc(C(F)(F)F)nc2)n1` [Compound 314, 3-amino-6-(1-methyl-1H-imidazol-5-yl)-N-(6-(trifluoromethyl)pyridin-3-yl)pyrazine-2-carboxamide], the IC50 on human CD38 was found to be 8.9 nM; in experiment [1] it was 1370 nM; at mouse CD38, 7.5 nM.
The matching figures for `O=C(Nc1ccc(C(F)(F)F)nc1)c1cc(-n2ccnc2)ccn1` [Compound 6, 4-(1H-imidazol-1-yl)-N-(6-(trifluoromethyl)pyridin-3-yl)picolinamide]: 352 nM, 8690 nM and 1580 nM.
For `COc1cc(C(=O)Nc2ccc(C(F)F)nc2)nc(-c2cncn2C)n1` [Compound 129, N-(6-(difluoromethyl)pyridin-3-yl)-6-methoxy-2-(1-methyl-1H-imidazol-5-yl)pyrimidine-4-carboxamide], the IC50 at human CD38 is 2 nM; in experiment [1], 267 nM; at mouse CD38 it was 1 nM.
For `O=C(NC1CCOCC1)c1cccc(-n2ccnc2)n1` [Compound 12, 6-(1H-imidazol-1-yl)-N-(tetrahydro-2H-pyran-4-yl)picolinamide], the IC50 on human CD38 was found to be 296 nM; in experiment [1] it was 3990 nM; at mouse CD38, 122 nM.
For `Cn1cncc1-c1cncc(C(=O)N[C@H]2CC[C@H](C)CC2)n1` [Compound 104, 6-(1-methyl-1H-imidazol-5-yl)-N-((1r,4r)-4-methylcyclohexyl)pyrazine-2-carboxamide], the IC50 at human CD38 is 24 nM; in experiment [1], 1360 nM; at mouse CD38 it was 10 nM.
Take `Cn1cncc1-c1nc(C(=O)N[C@H]2CC[C@H](NCC(F)(F)F)CC2)cc(C2CCOCC2)n1` [Compound 300, 2-(1-methyl-1H-imidazol-5-yl)-6-(tetrahydro-2H-pyran-4-yl)-N-((1r,4r)-4-((2,2,2-trifluoroethyl)amino)cyclohexyl) pyrimidine-4-carboxamide]: the 50% inhibitory concentration (IC50) at human CD38 came out at 15.7 nM; in experiment [1], 2120 nM; at mouse CD38, 1.6 nM.
Regarding `CO[C@H]1CC[C@H](NC(=O)c2cc(C3CCOCC3)nc(-n3ccnc3)n2)CC1` [Compound 193, 2-(1H-imidazol-1-yl)-N-((1r,4r)-4-methoxycyclohexyl)-6-(tetrahydro-2H-pyran-4-yl)pyrimidine-4-carboxamide], the IC50 on human CD38 amounted to 131 nM; in experiment [1], 11100 nM; at mouse CD38, 39.8 nM.
For `O=C(Nc1ccncc1)c1cc(-n2ccnc2)ccn1` [Compound 7, 4-(1H-imidazol-1-yl)-N-(pyridin-4-yl)picolinamide], the IC50 was 549 nM at human CD38, 4460 nM in experiment [1] and 223 nM on mouse CD38.
Regarding `CC(C)c1cc(C(=O)Nc2ccc(C(F)F)nc2)nc(-c2cncn2C)n1` [Compound 173, N-(6-(difluoromethyl)pyridin-3-yl)-6-isopropyl-2-(1-methyl-1H-imidazol-5-yl)pyrimidine-4-carboxamide], the concentration for half-maximal inhibition (IC50) worked out at 8 nM at human CD38, 1250 nM in experiment [1] and 2 nM at mouse CD38.
The matching figures for `Cn1cncc1-c1cncc(C(=O)Nc2ccc(C(F)(F)F)nc2)n1` [Compound 90, 6-(1-methyl-1H-imidazol-5-yl)-N-(6-(trifluoromethyl)pyridin-3-yl)pyrazine-2-carboxamide]: 4 nM, 369 nM and 13 nM.
As for `Cn1cncc1-c1nc(C(=O)Nc2ccc(C(F)F)nc2)cc(C2CCC(F)(F)CC2)n1` [Compound 287, 6-(4,4-difluorocyclohexyl)-N-(6-(difluoromethyl)pyridin-3-yl)-2-(1-methyl-1H-imidazol-5-yl)pyrimidine-4-carboxamide], the half-inhibitory concentration (IC50) at human CD38 turned out to be 3.1 nM; in experiment [1], 882 nM; on mouse CD38, 0.7 nM.
The matching figures for `O=C(Nc1ccccn1)c1cc(-n2ccnc2)ccn1` [Compound 4, 4-(1H-imidazol-1-yl)-N-(pyridin-2-yl)picolinamide]: 1130 nM, 8510 nM and 491 nM.
Regarding `Cn1cncc1-c1ccnc(C(=O)Nc2ccc(C(C)(C)O)cc2)n1` [Compound 358, N-(4-(2-hydroxypropan-2-yl)phenyl)-4-(1-methyl-1H-imidazol-5-yl)pyrimidine-2-carboxamide], the IC50 at human CD38 came to 4.3 nM; in experiment [1], 1010 nM; on mouse CD38 it was 5.8 nM.
The matching figures for `O=C(NC1CC2(C1)CC(F)(F)C2)c1cncc(-n2ccnc2)n1` [Compound 103, N-(6,6-difluorospiro[3.3]heptan-2-yl)-6-(1H-imidazol-1-yl)pyrazine-2-carboxamide]: 146 nM, 1620 nM and 30 nM.
In the case of `CO[C@H]1CC[C@H](NC(=O)c2cc(C(F)(F)F)cc(-n3ccnc3)n2)CC1` [Compound 60, 6-(1H-imidazol-1-yl)-N-(4-methoxycyclohexyl)-4-(trifluoromethyl)picolinamide], the figures for the IC50 (on human CD38; in experiment [1]; on mouse CD38) were 61 nM, 4810 nM and 12 nM, respectively.
With `Cn1cncc1-c1nc(C(=O)N[C@H]2CC[C@H](O)CC2)cc(C2CCC(F)(F)CC2)n1` [Compound 288, 6-(4,4-difluorocyclohexyl)-N-((1r,4r)-4-hydroxycyclohexyl)-2-(1-methyl-1H-imidazol-5-yl)pyrimidine-4-carboxamide], the IC50 on human CD38 came to 10.3 nM; in experiment [1], 2580 nM; at mouse CD38, 1 nM.
`Cn1cncc1-c1nc(C(=O)Nc2ccc(C(F)F)nc2)cc(C(C)(C)O)n1` [Compound 159, N-(6-(difluoromethyl)pyridin-3-yl)-6-(2-hydroxypropan-2-yl)-2-(1-methyl-1H-imidazol-5-yl)pyrimidine-4-carboxamide]: the 50% inhibitory concentration (IC50) on human CD38 was determined as 9 nM; in experiment [1], 1090 nM; at mouse CD38, 5 nM.
Take `COc1cc(C(=O)Nc2ccc(C(F)(F)F)nc2)nc(-c2cncn2C)c1` [Compound 226, 4-methoxy-6-(1-methyl-1H-imidazol-5-yl)-N-(6-(trifluoromethyl)pyridin-3-yl)picolinamide]: the IC50 on human CD38 was 20.4 nM; in experiment [1], 5210 nM; on mouse CD38 it was 12.7 nM.
In the case of `CC(C)(O)[C@H]1CC[C@H](NC(=O)c2nccc(-n3ccnc3)n2)CC1` [Compound 251, N-((1r,4r)-4-(2-hydroxypropan-2-yl)cyclohexyl)-4-(1H-imidazol-1-yl)pyrimidine-2-carboxamide], the values for the IC50 (at human CD38; in experiment [1]; at mouse CD38) were 207 nM, 5110 nM and 58.7 nM, respectively.
The matching figures for `Cn1cncc1-c1cc(C(C)(C)C)nc(C(=O)Nc2ccc(C(F)F)nc2)n1` [Compound 189, 4-(tert-butyl)-N-(6-(difluoromethyl)pyridin-3-yl)-6-(1-methyl-1H-imidazol-5-yl)pyrimidine-2-carboxamide]: 333 nM, 8510 nM and 261 nM.
Consider `COC(=O)[C@H]1CC[C@H](NC(=O)c2ccnc(-n3ccnc3)n2)CC1` [Compound 106, methyl (1r,4r)-4-(2-(1H-imidazol-1-yl)pyrimidine-4-carboxamido)cyclohexane-1-carboxylate], for which the IC50 on human CD38 stood at 22 nM; in experiment [1], 1800 nM; at mouse CD38 it was 9 nM.
Turning to `CO[C@H]1CC[C@H](NC(=O)c2cc(C)cc(-c3cncn3C)n2)CC1` [Compound 98, N-(4-methoxycyclohexyl)-4-methyl-6-(1-methyl-1H-imidazol-5-yl)picolinamide], the half-inhibitory concentration (IC50) amounted to 106 nM at human CD38, 4740 nM in experiment [1] and 10 nM at mouse CD38.
Regarding `COCCO[C@H]1CC[C@H](NC(=O)c2cc(C(F)(F)F)nc(-n3ccnc3)n2)CC1` [Compound 157, 2-(1H-imidazol-1-yl)-N-((1r,4r)-4-(2-methoxyethoxy)cyclohexyl)-6-(trifluoromethyl)pyrimidine-4-carboxamide], the concentration for half-maximal inhibition (IC50) came out at 121 nM on human CD38, 7230 nM in experiment [1] and 48 nM at mouse CD38.

A word on the IC50: it is the midpoint of a concentration-inhibition curve.
